Laboratory results from ChEMBL document CHEMBL5137120, “Modified ent-Abietane Diterpenoids from the Leaves of Suregada zanzibariensis” (J Nat Prod, 2022).

Experiments:
[1] = Cytotoxicity against African green monkey GMK-AH-1 cell assessed as cell growth inhibition at >=100 uM incubated for 3 days by CellTiter96 Aqueous one reagent based assay; type: toxicity; details: chlorocebus aethiops, gmk-ah-1, 72 h, time 3 day
[2] = Cytotoxicity against human THP-1 cells assessed as cell growth inhibition incubated for 24 hrs by MTT assay; type: toxicity, cell-based

Structure (SMILES)	Activity [1]	IC50 at 24 h [2] [nM]
C=C1[C@@H](C)CC(=O)[C@@]2(C)[C@@H]3C[C@H]4OC(=O)C(C)=C4[C@H]4O[C@]43CC[C@]12O	Non-Toxic	
C=C1[C@@H](C)CC(=O)[C@@]2(C)[C@@H]3C[C@H]4OC(=O)C(C)=C4C=C3CC[C@]12O	Non-Toxic	
CC(C)[C@H]1CC[C@@H]2[C@]1(C)CC[C@]1(C)[C@H]3CC=C4[C@@H](CC[C@H](O)C4(C)C)[C@]3(C)CC[C@@]21C	Non-Toxic	1780
